In the assay the target is KRas G12D (Homo sapiens (Human), UniProt P01116, G12D). As to the kind of experiment: KRas G12D Binding Assay (TR-FRET displacement of Cy5 labelled tracer). Particulars: GDP-loaded KRAS G12D (amino acids 1:169), 60 minute incubation at 22° C. Here is the method:
After a 60 minute incubation at 22° C., the reaction was measured using a PerkinElmer EnVision multimode plate reader via TR-FRET dual wavelength detection, and the percent of control (POC) calculated using a ratiometric emission factor. […] The POC values were fit to a 4-parameter logistic curve and the IC50 value was determined as the concentration where the curve crosses 50 POC.
ND stands for “not determined.”
For orientation: TR-FRET usually uses a lanthanide donor and a delayed reading to cut background.

This is an account of results in patent publication US20230279025A1, “KRAS G12D INHIBITORS” (Mirati Therapeutics, Inc., priority 2020, published 2023).

KRas G12D, sequence (P01116 other isoform, or with tags, fused parts or gaps G12D): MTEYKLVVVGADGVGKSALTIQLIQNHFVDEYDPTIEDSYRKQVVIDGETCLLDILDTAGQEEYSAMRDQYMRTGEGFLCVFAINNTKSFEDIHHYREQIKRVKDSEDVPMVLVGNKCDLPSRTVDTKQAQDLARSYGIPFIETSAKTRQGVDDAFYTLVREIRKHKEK

The IC50 is the concentration that inhibits the measured activity by half. A lower IC50 goes with inhibition by little substance. The molecule `COC1(OC)CN2CCCC2(COc2nc(N3C[C@H]4CC[C@@H](C3)N4)c3cnc(-c4cccc5cccc(Cl)c45)c(F)c3n2)C1` (stereo partly drawn) [Example 404, 4-((1R,5S)-3,8-diazabicyclo[3.2.1]octan-3-yl)-7-(8-chloronaphthalen-1-yl)-2-((2,2-dimethoxytetrahydro-H-pyrrolizin-7a(5H)-yl)methoxy)-8-fluoropyrido[4,3-d]pyrimidine] came in with an IC50 of 60.8 nM. For the molecule `CN(C)C(=O)OC[C@H]1CC[C@@]2(COc3nc(N4CC5CCC(C4)N5)c4cnc(-c5cccc6cccc(Cl)c56)c(F)c4n3)CCCN12` [Example 405, (7a-(((4-(3,8-diazabicyclo[3.2.1]octan-3-yl)-7-(8-chloronaphthalen-1l-yl)-8-fluoropyrido[4,3-d]pyrimidin-2-yl)oxy)methyl)hexahydro-1H-pyrrolizin-3-yl)methyl dimethylcarbamate], the concentration for half-maximal inhibition (IC50) is 2.2 nM. Molecule `CNC(=O)OC[C@H]1CC[C@@]2(COc3nc(N4CC5CCC(C4)N5)c4cnc(-c5cccc6cccc(Cl)c56)c(F)c4n3)CCCN12` [Example 408, (7a-(((4-(3,8-diazabicyclo[3.2.1]octan-3-yl)-7-(8-chloronaphthalen-1-yl)-8-fluoropyrido[4,3-d]pyrimidin-2-yl)oxy)methyl)hexahydro-1H-pyrrolizin-3-yl)methyl methylcarbamate] gave a concentration for half-maximal inhibition (IC50) of 3.1 nM. As for `COC(=O)NC[C@H]1CC[C@@]2(COc3nc(N4CC5CCC(C4)N5)c4cnc(-c5cccc6cccc(Cl)c56)c(F)c4n3)CCCN12` [Example 411, methyl ((7a-(((4-(3,8-diazabicyclo[3.2.1]octan-3-yl)-7-(8-chloronaphthalen-1-yl)-8-fluoropyrido[4,3-d]pyrimidin-2-yl)oxy)methyl)hexahydro-1H-pyrrolizin-3-yl)methyl)carbamate], the figure is 17 nM; as for `CN(C)C(=O)NC[C@H]1CC[C@@]2(COc3nc(N4CC5CCC(C4)N5)c4cnc(-c5cccc6cccc(Cl)c56)c(F)c4n3)CCCN12` [Example 412, 3-((7a-(((4-(3,8-diazabicyclo[3.2.1]octan-3-yl)-7-(8-chloronaphthalen-1-yl)-8-fluoropyrido[4,3-d]pyrimidin-2-yl)oxy)methyl)hexahydro-1H-pyrrolizin-3-yl)methyl)-1,1-dimethylurea], 17.7 nM; as for `Fc1c(-c2cccc3cccc(Cl)c23)ncc2c(N3C[C@H]4CC[C@@H](C3)N4)nc(OC[C@]34CCCN3[C@@H](Cn3cccn3)CC4)nc12` [Example 418, 2-(((3R,7aR)-3-((1H-pyrazol-1-yl)methyl)hexahydro-1H-pyrrolizin-7a-yl)methoxy)-4-((1R,5S)-3,8-diazabicyclo[3.2.1]octan-3-yl)-7-(8-chloronaphthalen-1-yl)-8-fluoropyrido[4,3-d]pyrimidine], 7.5 nM. Consider `Fc1c(-c2cccc3cccc(C(F)(F)F)c23)ncc2c(N3C[C@H]4CC[C@@H](C3)N4)nc(OC[C@@]34CCCN3C[C@H](F)C4)nc12` [Example 419, 4-((1R,5S)-3,8-diazabicyclo[3.2.1]octan-3-yl)-8-fluoro-2-(((2R,7aS)-2-fluorotetrahydro-1H-pyrrolizin-7a(5H)-yl)methoxy)-7-(8-(trifluoromethyl)naphthalen-1-yl)pyrido[4,3-d]pyrimidine], for which the half-maximal inhibitory concentration (IC50) stood at 50.9 nM. For the molecule `CS(=O)(=O)NC[C@H]1CC[C@@]2(COc3nc(N4C[C@H]5CC[C@@H](C4)N5)c4cnc(-c5cccc6cccc(Cl)c56)c(F)c4n3)CCCN12` [Example 420, N-(((3R,7aR)-7a-(((4-((1R,5S)-3,8-diazabicyclo[3.2.1]octan-3-yl)-7-(8-chloronaphthalen-1-yl)-8-fluoropyrido[4,3-d]pyrimidin-2-yl)oxy)methyl)hexahydro-1H-pyrrolizin-3-yl)methyl)methanesulfonamide], the concentration for half-maximal inhibition (IC50) was 20 nM. `CC(C)c1ncccc1-c1ncc2c(N3C[C@H]4CC[C@@H](C3)N4)nc(OC[C@@]34CCCN3C[C@H](F)C4)nc2c1F` [Example 421, 4-((1R,5S)-3,8-diazabicyclo[3.2.1]octan-3-yl)-8-fluoro-2-(((2R,7aS)-2-fluorohexahydro-1H-pyrrolizin-7a-yl)methoxy)-7-(2-isopropylpyridin-3-yl)pyrido[4,3-d]pyrimidine]: the half-inhibitory concentration (IC50) amounted to 7750 nM. As for `COCc1cccc2cccc(-c3ncc4c(N5C[C@H]6CC[C@@H](C5)N6)nc(OC[C@@]56CCCN5C[C@H](F)C6)nc4c3F)c12` [Example 423, 4-((1R,5S)-3,8-diazabicyclo[3.2.1]octan-3-yl)-8-fluoro-2-(((2R,7aS)-2-fluorohexahydro-1H-pyrrolizin-7a-yl)methoxy)-7-(8-(methoxymethyl)naphthalen-1-yl)pyrido[4,3-d]pyrimidine], the figure is 238 nM.

Molecule `Oc1ccc(CC(F)(F)F)c(-c2ncc3c(N4C[C@H]5CC[C@@H](C4)N5)nc(OC[C@@]45CCCN4C[C@H](F)C5)nc3c2F)c1` [Example 424, 3-(4-((1R,5S)-3,8-diazabicyclo[3.2.1]octan-3-yl)-8-fluoro-2-(((2R,7aS)-2-fluorohexahydro-1H-pyrrolizin-7a-yl)methoxy)pyrido[4,3-d]pyrimidin-7-yl)-4-(2,2,2-trifluoroethyl)phenol] yielded a 50% inhibitory concentration (IC50) of 5 nM.

For the molecule `Fc1c(-c2cccc3cccc(Cl)c23)ncc2c(N3C[C@H]4CC[C@@H](C3)N4)nc(OCC34CC(F)CN3CC(F)C4)nc12` (stereo partly drawn) [Example 425, 4-((1R,5S)-3,8-diazabicyclo[3.2.1]octan-3-yl)-7-(8-chloronaphthalen-1-yl)-2-((2,6-difluorohexahydro-1H-pyrrolizin-7a-yl)methoxy)-8-fluoropyrido[4,3-d]pyrimidine], the concentration for half-maximal inhibition (IC50) is 90.2 nM.

In turn, `CCc1c(F)ccc2cccc(-c3ncc4c(N5C[C@H]6CC[C@@H](C5)N6)nc(OCC56CCCN5CCC6)nc4c3F)c12` [Example 426, 4-((1R,5S)-3,8-diazabicyclo[3.2.1]octan-3-yl)-7-(8-ethyl-7-fluoronaphthalen-1-yl)-8-fluoro-2-((hexahydro-1H-pyrrolizin-7a-yl)methoxy)pyrido[4,3-d]pyrimidine] showed an IC50 of 0.9 nM. `CCn1ccc2cccc(-c3ncc4c(N5C[C@H]6CC[C@@H](C5)N6)nc(OCC56CCCN5CCC6)nc4c3F)c21` [Example 427, 4-((1R,5S)-3,8-diazabicyclo[3.2.1]octan-3-yl)-7-(1-ethyl-1H-indol-7-yl)-8-fluoro-2-((hexahydro-1H-pyrrolizin-7a-yl)methoxy)pyrido[4,3-d]pyrimidine]: the half-maximal inhibitory concentration (IC50) was 35.3 nM. To `Fc1c(-c2cccc3c2CCC3)ncc2c(N3CC4CCC(C3)N4)nc(OC[C@@]34CCCN3C[C@H](F)C4)nc12` [Example 428, 4-(3,8-diazabicyclo[3.2.1]octan-3-yl)-7-(2,3-dihydro-1H-inden-4-yl)-8-fluoro-2-(((2R,7aS)-2-fluorotetrahydro-1H-pyrrolizin-7a(5H)-yl)methoxy)pyrido[4,3-d]pyrimidine] belongs 92.1 nM; to `CC1CCc2cccc(-c3ncc4c(N5CC6CCC(C5)N6)nc(OC[C@@]56CCCN5C[C@H](F)C6)nc4c3F)c21` (stereo partly drawn) [Example 429, 4-(3,8-diazabicyclo[3.2.1]octan-3-yl)-8-fluoro-2-(((2R,7aS)-2-fluorotetrahydro-1H-pyrrolizin-7a(5H)-yl)methoxy)-7-(3-methyl-2,3-dihydro-1H-inden-4-yl)pyrido[4,3-d]pyrimidine], 18.5 nM.
